Assay results from patent US20060276520A1 (priority 2002, published 2006).
“And” between values parts separate entries of the source, which are not always exact repeats. Identical values can stand only once. Like-named read-outs stand apart in the source and are kept apart here.

How the values were obtained:
Experiment in all cases: biochemical
[1] = biological target: T1, APC2/APC11 (Homo sapiens, UniProt Q9NYG5+Q9UJX6)
[2] = biological target: T1, APC2/APC11; remark: listed apart in the source
[3] = biological target: MDM2/P53 (Homo sapiens, UniProt Q00987)
[4] = biological target: ROC1/CUL1 (Homo sapiens, UniProt P62877+Q13616)
[5] = biological target: ROC1/CUL2 (Homo sapiens, UniProt P62877+Q13617)
[6] = biological target: T2, ROC2/CUL5 (Homo sapiens, UniProt Q93034+Q9UBF6)
T2 sequence (Q9UBF6 1-113): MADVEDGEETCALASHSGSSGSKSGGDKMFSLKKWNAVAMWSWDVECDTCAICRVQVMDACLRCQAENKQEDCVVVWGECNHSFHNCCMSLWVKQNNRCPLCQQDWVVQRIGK
T2 sequence (Q93034 1-780): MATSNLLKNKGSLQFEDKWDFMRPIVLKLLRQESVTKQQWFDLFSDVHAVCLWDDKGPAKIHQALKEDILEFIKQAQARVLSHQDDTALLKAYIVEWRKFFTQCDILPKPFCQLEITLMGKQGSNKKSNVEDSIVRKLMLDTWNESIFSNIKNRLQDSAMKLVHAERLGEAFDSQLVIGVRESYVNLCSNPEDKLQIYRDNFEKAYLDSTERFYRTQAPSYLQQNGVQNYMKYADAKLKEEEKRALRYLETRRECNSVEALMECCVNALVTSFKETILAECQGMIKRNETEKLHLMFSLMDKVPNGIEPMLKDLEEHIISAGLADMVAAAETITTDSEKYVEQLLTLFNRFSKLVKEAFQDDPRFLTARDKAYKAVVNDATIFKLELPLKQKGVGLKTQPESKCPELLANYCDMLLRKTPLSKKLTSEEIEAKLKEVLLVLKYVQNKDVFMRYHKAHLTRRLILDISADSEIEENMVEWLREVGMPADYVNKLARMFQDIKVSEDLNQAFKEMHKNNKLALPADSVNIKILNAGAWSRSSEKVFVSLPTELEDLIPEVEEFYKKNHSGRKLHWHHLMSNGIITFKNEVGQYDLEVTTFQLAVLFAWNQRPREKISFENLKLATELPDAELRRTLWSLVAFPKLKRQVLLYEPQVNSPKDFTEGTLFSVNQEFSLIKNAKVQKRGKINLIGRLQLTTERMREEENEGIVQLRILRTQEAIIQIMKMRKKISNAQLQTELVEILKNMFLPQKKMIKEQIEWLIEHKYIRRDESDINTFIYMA

T1 sequence (Q9UJX6 whole entry): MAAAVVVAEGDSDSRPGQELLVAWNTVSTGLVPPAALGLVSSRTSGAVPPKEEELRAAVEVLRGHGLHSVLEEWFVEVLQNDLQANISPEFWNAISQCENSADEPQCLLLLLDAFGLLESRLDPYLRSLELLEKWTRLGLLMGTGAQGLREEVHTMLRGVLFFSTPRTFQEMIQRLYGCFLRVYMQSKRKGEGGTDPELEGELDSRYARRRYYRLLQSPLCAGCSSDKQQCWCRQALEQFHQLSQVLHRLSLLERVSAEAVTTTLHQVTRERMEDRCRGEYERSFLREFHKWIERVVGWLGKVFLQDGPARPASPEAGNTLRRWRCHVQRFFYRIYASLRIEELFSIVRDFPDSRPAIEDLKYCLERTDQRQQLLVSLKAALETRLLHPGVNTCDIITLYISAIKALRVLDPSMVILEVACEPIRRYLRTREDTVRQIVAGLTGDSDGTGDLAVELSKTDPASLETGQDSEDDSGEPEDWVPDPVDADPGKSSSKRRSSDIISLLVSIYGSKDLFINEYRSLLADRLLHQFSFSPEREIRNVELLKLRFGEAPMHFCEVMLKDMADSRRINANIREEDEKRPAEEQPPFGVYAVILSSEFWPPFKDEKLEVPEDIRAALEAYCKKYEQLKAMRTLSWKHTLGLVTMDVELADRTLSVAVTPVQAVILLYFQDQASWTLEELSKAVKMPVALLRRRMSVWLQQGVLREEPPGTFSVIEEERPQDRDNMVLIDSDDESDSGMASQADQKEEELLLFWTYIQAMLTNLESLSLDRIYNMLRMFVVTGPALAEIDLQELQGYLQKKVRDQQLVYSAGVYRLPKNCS
T1 sequence (Q9NYG5 whole entry): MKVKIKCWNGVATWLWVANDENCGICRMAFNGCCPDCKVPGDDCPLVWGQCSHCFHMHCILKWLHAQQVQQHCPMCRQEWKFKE
MDM2/P53, sequence (Q00987 whole entry): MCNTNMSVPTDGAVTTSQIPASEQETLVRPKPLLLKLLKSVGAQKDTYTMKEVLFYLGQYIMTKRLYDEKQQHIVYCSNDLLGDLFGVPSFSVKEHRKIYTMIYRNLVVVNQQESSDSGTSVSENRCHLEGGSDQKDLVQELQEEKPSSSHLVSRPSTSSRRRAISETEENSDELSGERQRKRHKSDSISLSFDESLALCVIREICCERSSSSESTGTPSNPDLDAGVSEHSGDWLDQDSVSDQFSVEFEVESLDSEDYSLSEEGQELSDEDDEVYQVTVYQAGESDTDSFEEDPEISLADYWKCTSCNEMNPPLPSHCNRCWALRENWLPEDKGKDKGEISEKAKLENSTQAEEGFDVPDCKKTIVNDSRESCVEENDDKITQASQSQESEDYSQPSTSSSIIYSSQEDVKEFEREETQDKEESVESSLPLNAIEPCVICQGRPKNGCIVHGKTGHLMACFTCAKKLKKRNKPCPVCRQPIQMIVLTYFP
ROC1/CUL2, sequence (P62877 whole entry): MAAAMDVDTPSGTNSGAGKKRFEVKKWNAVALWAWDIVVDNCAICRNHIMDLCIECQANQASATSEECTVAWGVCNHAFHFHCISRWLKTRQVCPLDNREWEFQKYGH
ROC1/CUL2, sequence (Q13617 whole entry): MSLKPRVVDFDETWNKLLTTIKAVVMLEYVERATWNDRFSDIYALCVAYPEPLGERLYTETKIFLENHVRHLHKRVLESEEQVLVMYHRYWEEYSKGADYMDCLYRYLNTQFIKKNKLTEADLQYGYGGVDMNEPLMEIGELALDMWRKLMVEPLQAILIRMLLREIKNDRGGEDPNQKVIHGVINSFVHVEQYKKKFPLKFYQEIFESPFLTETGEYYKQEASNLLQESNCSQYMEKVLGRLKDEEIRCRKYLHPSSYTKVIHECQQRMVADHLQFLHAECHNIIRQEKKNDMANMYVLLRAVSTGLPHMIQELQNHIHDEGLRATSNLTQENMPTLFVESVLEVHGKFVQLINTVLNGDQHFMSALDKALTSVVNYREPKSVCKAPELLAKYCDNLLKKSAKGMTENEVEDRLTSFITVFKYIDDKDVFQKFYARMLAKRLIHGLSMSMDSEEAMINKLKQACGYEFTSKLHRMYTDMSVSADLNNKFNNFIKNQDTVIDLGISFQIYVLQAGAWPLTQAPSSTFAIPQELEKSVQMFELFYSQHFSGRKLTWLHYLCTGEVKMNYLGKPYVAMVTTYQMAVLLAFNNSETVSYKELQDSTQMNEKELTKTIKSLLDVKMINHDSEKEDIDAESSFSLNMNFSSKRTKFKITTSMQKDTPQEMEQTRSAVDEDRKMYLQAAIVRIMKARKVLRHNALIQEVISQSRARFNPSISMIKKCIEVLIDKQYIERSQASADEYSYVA
ROC1/CUL1, sequence (P62877 whole entry): as the sequence (P62877 whole entry) above
ROC1/CUL1, sequence (Q13616 whole entry): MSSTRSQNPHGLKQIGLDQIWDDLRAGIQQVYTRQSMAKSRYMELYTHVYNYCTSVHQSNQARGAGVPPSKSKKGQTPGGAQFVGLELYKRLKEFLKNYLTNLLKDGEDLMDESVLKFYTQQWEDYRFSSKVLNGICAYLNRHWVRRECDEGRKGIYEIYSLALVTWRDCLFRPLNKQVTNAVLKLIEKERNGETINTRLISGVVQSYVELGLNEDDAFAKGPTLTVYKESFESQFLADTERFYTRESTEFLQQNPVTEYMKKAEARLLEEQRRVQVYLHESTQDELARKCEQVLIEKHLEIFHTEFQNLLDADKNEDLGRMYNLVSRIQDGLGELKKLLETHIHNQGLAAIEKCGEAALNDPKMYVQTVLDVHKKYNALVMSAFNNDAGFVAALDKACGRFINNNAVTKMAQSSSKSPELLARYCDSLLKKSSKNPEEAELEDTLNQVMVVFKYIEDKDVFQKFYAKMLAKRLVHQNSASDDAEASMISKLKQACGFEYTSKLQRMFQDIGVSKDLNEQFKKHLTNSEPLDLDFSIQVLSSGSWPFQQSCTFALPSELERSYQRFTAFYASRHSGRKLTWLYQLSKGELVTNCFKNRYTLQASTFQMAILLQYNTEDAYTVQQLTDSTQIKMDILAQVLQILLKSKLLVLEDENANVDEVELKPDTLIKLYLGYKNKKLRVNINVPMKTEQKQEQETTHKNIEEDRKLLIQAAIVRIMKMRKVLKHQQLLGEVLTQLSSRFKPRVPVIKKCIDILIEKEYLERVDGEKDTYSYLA

O=C1/C(=C\c2ccc(-c3cccc(C(F)(F)F)c3)o2)SC(=S)N1Cc1ccco1 [Compound 55, (5E)-3-(2-furylmethyl)-2-thioxo-5-({5-[3-(trifluoromethyl)phenyl]-2-furyl}methylene)-1,3-thiazolidin-4-one]
IC50 [1]: 4000 nM and 10000 nM

COc1ccc(-c2ccc(/C=C3/SC(=S)NC3=O)o2)cc1Cl [Compound 172, (5E)-5-{[5-(3-chloro-4-methoxyphenyl)-2-furyl]methylene}-2-thioxo-1,3-thiazolidin-4-one]
IC50 [2]: 2000 nM | IC50 [1]: 2000 nM

O=C1/C(=C/c2ccc(-c3ccccc3Cl)o2)SC(=S)N1Cc1ccco1 [Compound 280, (5Z)-5-{[5-(2-chlorophenyl)-2-furyl]methylene}-3-(2-furylmethyl)-2-thioxo-1,3-thiazolidin-4-one]
IC50 [2]: 560 nM | IC50 [3]: 250 nM

C=CCN1C(=O)/C(=C/c2ccc(-c3cccc(Cl)c3)o2)SC1=S [Compound 284, (5Z)-3-allyl-5-{[5-(3-chlorophenyl)-2-furyl]methylene}-2-thioxo-1,3-thiazolidin-4-one]
IC50 [4]: 800 nM | IC50 [5]: 800 nM | IC50 [6]: 200 nM

CC(C)(C)OC(=O)[C@H](Cc1ccccc1)NC(=O)CN1C(=O)/C(=C/c2ccc(-c3ccccc3Cl)o2)SC1=S [Compound 301, tert-butyl N-[((5Z)-5-{[5-(2-chlorophenyl)-2-furyl]methylene}-4-oxo-2-thioxo-1,3-thiazolidin-3-yl)acetyl]phenylalaninate]
IC50 [2]: 410 nM | IC50 [3]: 930 nM

C=CCN1C(=O)C(Cc2ccc(-c3ccccc3Cl)o2)SC1=S (stereo not shown) [Compound 304, 3-allyl-5-{[5-(2-chlorophenyl)-2-furyl]methyl}-2-thioxo-1,3-thiazolidin-4-one]
IC50 [4]: 1000 nM | IC50 [5]: 1000 nM | IC50 [6]: 800 nM
